The values that follow come from US6479548B2, “Substituted stilbenes as glucose uptake enhancers” (Telik, Inc., priority 2000, dated 2002).

Experiment [1] deals with T1, complete β-kinase domain of the human insulin receptor (CKD) (Homo sapiens, UniProt P06213).
T1 construct: The complete β-kinase domain of the human insulin receptor (CKD); made in house
As to the kind of experiment: 32P-CKD autophosphorylation assay. Type of experiment: biochemical. The conditions noted are these: compound at 10 μM, phosphorylation of CKD expressed as % of the vehicle level; for activity at 10 µM: 10 min, read-out: Activity (% vs. control). How it is done: The complete β-kinase domain of the human insulin receptor (CKD) was expressed in, and purified from, baculovirus. CKD (4.0 μg/ml), in a solution of 29 mM HEPES (pH 7.6), 0.05% Triton X-100, 10 mM MgCl2, 2 mM MnCl2 (50 μl final volume), is combined with 50 μM ATP, and 5 μCi ^32P-ATP (3000 Ci/mmol).

In another experiment the test system is 3T3 L1 fibroblasts. As to the kind of experiment: Glucose transport activity (14C-2-deoxy-D-glucose uptake). Type of experiment: cell-based. The conditions noted are these: concentration producing increase in glucose transport that is 50% of the response of 100 nM insulin (5.6 nM insulin as lower bound), tested 1 μM to 56 μM. How it is done:
3T3 L1 fibroblasts (ATCC) were grown in Dulbecco's modified Eagle's medium (DMEM) with 10% fetal bovine serum (FBS). The cells were plated at a density of 3×10^4 cells/well in 24-well plates. Two days after confluence was reached, the cells were treated for 3 days with 0.5 mM isobutylmethylxanthine (IBMX), 1 μM dexamethasone, and 1.7 μM insulin. The cells were then transferred to DMEM with 1.7 μM insulin for 2 more days. The cells were maintained in DMEM with 10% FBS for an additional 4 days. Finally, the cells were serum-starved overnight in 0. 1% bovine serum albumin (BSA) in DMEM. The following day, the medium was replaced with 150 mM NaCl, 1.7 mM KCl, 0.9 mM CaCl2, K2HPO4 (pH 7.4), to which was added either the experimental compound or its vehicle (DMSO). Insulin or its vehicle (0.01% BSA) was diluted in the assay buffer (containing test compound or vehicle, respectively) to a final concentration of 5.6 nM. After incubation for 30 min at 37° C., 5 μCi/ml ^14C-2-deoxy-D-glucose was added, and the incubation was continued for an additional 30 min at 37° C. The cells were then washed 3 times with ice-cold PBS/20 mM glucose and lysed in 250 μl of lysis buffer (50 mM HEPES pH 7.6, 1% Triton X-100) for 30 min at room temperature. Radioactivity in the lysate was quantified by scintillation counting.
Once ^14C-2-deoxy-D-glucose is transported into the cell, it is not released. Glucose transport is, therefore, proportional to the amount of radioactivity in the lysate. […] The concentration of compound necessary to produce an increase in glucose transport that is 50% of the response of 100 nM insulin (using 5.6 nM insulin as the lower bound) was calculated as the EC50 (effective concentration).

T1 sequence (P06213 1023-1298 limits assumed): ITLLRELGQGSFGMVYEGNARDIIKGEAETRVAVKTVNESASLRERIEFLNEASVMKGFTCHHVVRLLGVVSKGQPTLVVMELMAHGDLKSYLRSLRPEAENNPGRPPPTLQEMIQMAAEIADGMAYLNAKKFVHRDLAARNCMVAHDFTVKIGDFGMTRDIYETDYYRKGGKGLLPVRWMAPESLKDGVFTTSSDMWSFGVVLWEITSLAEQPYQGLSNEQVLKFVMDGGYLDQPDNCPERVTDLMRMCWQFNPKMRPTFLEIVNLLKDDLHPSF

One may read the EC50 as the concentration giving half of the maximal effect. On to “5-((1E)-2-phenylvinyl)-2-({4-[(4-carboxyphenyl)-N-methylcarbonylamnino]phenyl}-N-methylcarbonylamino)benzoic acid [Compound 20]”, for which the “Activity (% vs. control)” value in experiment [1] is given as 112%. The compound further gave an EC50 with 3T3 L1 fibroblasts of 109 µM.
Turning to `CNc1ccc(C(=O)Nc2ccc(/C=C/c3ccc(C(=O)O)cc3)cc2C(=O)O)cc1` [Compound 23, 5-[(1E)-2-(4-carboxyphenyl)vinyl]-2-{[4-(methylamino)phenyl]carbonylamino}-benzoic acid], the activity at 10 µM in experiment [1] came to 112%. In the experiment with 3T3 L1 fibroblasts (Mus musculus, 3T3-L1), this compound yielded a 50% effective concentration (EC50) of 98 µM.
Taken in the same sequence, the figures for `O=C(O)Cc1ccc(/C=C/c2ccc(NC(=O)c3ccccc3C(=O)O)cc2)cc1` [Compound 24, 2-[N-(4-{(1E)-2-[4-(carboxymethyl)phenyl]vinyl}phenyl)carbamoyl]benzoic acid] were 126% and 414 µM.
